We go through 57 compounds from US5385894A, “Disubstituted 6-aminoquinazolinones” (Merck & Co., Inc., priority 1994, dated 1995).

The series can be described thus: log P (Table 1). Type of series: physicochemical.
As usually defined, the logP is a log measure of how a compound divides between an organic and an aqueous phase. Read a low logP as lower lipophilicity. In turn, `CCCc1nc2ccc(N(CCC)C(=O)OCC(C)C)cc2c(=O)n1Cc1ccc(-c2ccccc2-c2nnn[nH]2)cc1` [Example 10] registered a log partition coefficient (logP) of 5.1. Compound `CCCOC(=O)N(Cc1ccccc1)c1ccc2nc(CCC)n(Cc3ccc(-c4ccccc4-c4nnn[nH]4)cc3)c(=O)c2c1` [Example 17] gave a logP of 5. On to `CCCCOC(=O)N(CCCC)c1ccc2nc(CCC)n(Cc3ccc(-c4ccccc4-c4nn[nH]n4)cc3)c(=O)c2c1` [Example 24], for which the logP was found to be 6. The same measure, in the same setting: then `CCCc1nc2ccc(N(Cc3ccccc3)C(=O)N(C)CC)cc2c(=O)n1Cc1ccc(-c2ccccc2-c2nn[nH]n2)cc1` [Example 30], with 4.3; and `CCCCCN(C(=O)c1ccccc1)c1ccc2nc(CCC)n(Cc3ccc(-c4ccccc4-c4nn[nH]n4)cc3)c(=O)c2c1` [Example 33, 2-propyl-6-(N-benzoyl-N-pentyl)-amino-3[(2'-(tetrazol-5-yl)biphen-4-yl)methyl]quinazolin-4(3H)-one], with 5.1. Same read-out and setting: the result for `CCCCCN(C(=O)c1ccncc1)c1ccc2nc(CCC)n(Cc3ccc(-c4ccccc4-c4nnn[nH]4)cc3)c(=O)c2c1` [Example 35] reads 4.3; that for `CCCc1nc2ccc(N(Cc3ccccc3)C(=O)c3ccccc3)cc2c(=O)n1Cc1ccc(-c2ccccc2-c2nn[nH]n2)cc1` [Example 36], 4.5. Same read-out and setting: the result for `CCCCCN(C(=O)c1ccc(Cl)cc1)c1ccc2nc(CCC)n(Cc3ccc(-c4ccccc4-c4nn[nH]n4)cc3)c(=O)c2c1` [Example 37] reads more than 6. `CCCCC(=O)N(Cc1ccccc1)c1ccc2nc(CCC)n(Cc3ccc(-c4ccccc4-c4nn[nH]n4)cc3)c(=O)c2c1` [Example 42] had a logP of 5.4. The compound `CCCCCN(C(=O)c1ccc(F)cc1)c1ccc2nc(CCC)n(Cc3ccc(-c4ccccc4-c4nn[nH]n4)cc3)c(=O)c2c1` [Example 43] displayed a logP of 5.2. On the same count and under the same terms, the result for `CCCCN(C(=O)c1ccc(F)cc1)c1ccc2nc(CCC)n(Cc3ccc(-c4ccccc4-c4nn[nH]n4)cc3)c(=O)c2c1` [Example 44] reads 4.7; that for `CCCc1nc2ccc(N(Cc3ccccc3)C(=O)OCC)cc2c(=O)n1Cc1ccc(-c2ccccc2-c2nn[nH]n2)cc1` [Example 56], 4.7; that for `CCc1nc2ccc(N(Cc3ccccc3)C(=O)c3ccccc3)cc2c(=O)n1Cc1ccc(-c2ccccc2-c2nnn[nH]2)cc1` [Example 57], 4.1.

The compound `CCCCN(C(=O)c1ccncc1)c1ccc2nc(CCC)n(Cc3ccc(-c4ccccc4-c4nn[nH]n4)cc3)c(=O)c2c1` [Example 68] showed a logP of 4.1. The term log P denotes the decadic logarithm of the partition coefficient of the neutral form, usually between octanol and water. Take `Cc1nc2ccc(N(Cc3ccccc3)C(=O)c3ccccc3)cc2c(=O)n1Cc1ccc(-c2ccccc2-c2nnn[nH]2)cc1` [Example 69]: the “log P” value is 3.5. Still for that read-out and setting: the result for `CC(C)c1nc2ccc(N(Cc3ccccc3)C(=O)c3ccccc3)cc2c(=O)n1Cc1ccc(-c2ccccc2-c2nnn[nH]2)cc1` [Example 70] reads 4.5.

`CCCCCN(C(=O)c1cccnc1)c1ccc2nc(CCC)n(Cc3ccc(-c4ccccc4-c4nn[nH]n4)cc3)c(=O)c2c1` [Example 72] returned a logP of 4.3.

In turn, `CCCCCN(C(=O)c1ccccc1)c1ccc2nc(CCC)n(Cc3ccc(-c4ccccc4S(=O)(=O)NC(=O)C4CC4)cc3)c(=O)c2c1` [Example 73] came in with a logP of 5.3. The compound `CCCCCN(C(=O)c1ccccc1)c1ccc2nc(CCC)n(Cc3ccc(-c4ccccc4S(=O)(=O)NC(=O)c4ccccc4)cc3)c(=O)c2c1` [Example 74] registered a logP of 5.5. Take `CCc1nc2ccc(N(Cc3ccccc3)C(=O)c3ccncc3)cc2c(=O)n1Cc1ccc(-c2ccccc2-c2nn[nH]n2)cc1` [Example 75]: the “log P” value worked out at 3.4.

As to `CCCCCN(C(=O)c1ccc([S+](C)[O-])cc1)c1ccc2nc(CCC)n(Cc3ccc(-c4ccccc4-c4nn[nH]n4)cc3)c(=O)c2c1` (stereo not drawn) [Example 81], the logP is 4.3. In turn, `CCCCCN(C(=O)c1ccc(S(C)(=O)=O)cc1)c1ccc2nc(CCC)n(Cc3ccc(-c4ccccc4-c4nn[nH]n4)cc3)c(=O)c2c1` [Example 83] registered a logP of 4.4.

`CCc1nc2ccc(N(Cc3ccccc3Cl)C(=O)c3ccccc3)cc2c(=O)n1Cc1ccc(-c2ccccc2-c2nn[nH]n2)cc1` [Example 84] showed a logP of 4.4. Regarding `CCc1nc2ccc(N(CC=C(C)C)C(=O)c3ccccc3)cc2c(=O)n1Cc1ccc(-c2ccccc2-c2nn[nH]n2)cc1` [Example 85], the “log P” value amounted to 4.2.

With `CCCc1nc2ccc(N(CCC)C(=O)c3ccc(F)cc3)cc2c(=O)n1Cc1ccc(-c2ccccc2-c2nn[nH]n2)cc1` [Example 90], the logP is 4.3. Same read-out and setting: the result for `CC(C)c1nc2ccc(N(Cc3ccccc3Cl)C(=O)C3CC3)cc2c(=O)n1Cc1ccc(-c2ccccc2-c2nn[nH]n2)cc1` [Example 94] reads 4.8; that for `O=C(c1ccccc1)N(Cc1ccccc1)c1ccc2ncn(Cc3ccc(-c4ccccc4-c4nn[nH]n4)cc3)c(=O)c2c1` [Example 95], 3.3; that for `CCC(C)c1nc2ccc(N(Cc3ccccc3)C(=O)c3ccccc3)cc2c(=O)n1Cc1ccc(-c2ccccc2-c2nn[nH]n2)cc1` (stereo not drawn) [Example 100], 4.9.

`CCCc1nc2ccc(N(CC(C)C)C(=O)c3ccccc3)cc2c(=O)n1Cc1ccc(-c2ccccc2-c2nnn[nH]2)cc1` [Example 102] came in with a lipophilicity (logP) of 4.5. On the same count and under the same terms, the result for `CCCc1nc2ccc(N(CCCC(=O)OCC)C(=O)c3ccccc3)cc2c(=O)n1Cc1ccc(-c2ccccc2-c2nnn[nH]2)cc1` [Example 103] reads 4.1; that for `CCCCCN(C(=O)c1ccccc1)c1ccc2nc(CCC)n(Cc3ccc(-c4ccccc4NS(=O)(=O)C(F)(F)F)cc3)c(=O)c2c1` [Example 104], 5.7; that for `CCCc1nc2ccc(N(CCCC(=O)O)C(=O)c3ccccc3)cc2c(=O)n1Cc1ccc(-c2ccccc2-c2nnn[nH]2)cc1` [Example 105], 2.3. For the compound `Cc1nc2ccc(N(Cc3ccccc3Cl)C(=O)c3ccccc3)cc2c(=O)n1Cc1ccc(-c2ccccc2-c2nn[nH]n2)cc1` [Example 106], the logP is 3.8. Turning to `Cc1nc2ccc(N(Cc3ccccc3)C(=O)c3ccncc3)cc2c(=O)n1Cc1ccc(-c2ccccc2-c2nnn[nH]2)cc1` [Example 107], the logP is 2.9.

Consider `CCCc1nc2ccc(N(C)C(C)=O)cc2c(=O)n1Cc1ccc(-c2ccccc2S(=O)(=O)NC(=O)C2CC2)cc1` [Example 108], for which the logP was found to be 2.9. For `Cc1nc2ccc(N(Cc3ccccc3Cl)C(=O)c3ccncc3)cc2c(=O)n1Cc1ccc(-c2ccccc2-c2nnn[nH]2)cc1` [Example 110], the logP was determined as 3.1. Same read-out and setting: then `CCc1nc2ccc(N(Cc3ccc(I)cc3)C(=O)c3ccccc3)cc2c(=O)n1Cc1ccc(-c2ccccc2-c2nnn[nH]2)cc1` [Example 112], with 5; and `CCCCCN(C(=O)c1cccs1)c1ccc2nc(CCC)n(Cc3ccc(-c4ccccc4-c4nnn[nH]4)cc3)c(=O)c2c1` [Example 113], with 5.1; and `CCCc1nc2ccc(N(C)C(=O)c3cccs3)cc2c(=O)n1Cc1ccc(-c2ccccc2-c2nnn[nH]2)cc1` [Example 114], with 3.4.

The compound `CCc1nc2ccc(N(Cc3ccccc3I)C(=O)c3ccccc3)cc2c(=O)n1Cc1ccc(-c2ccccc2-c2nn[nH]n2)cc1` [Example 117] came in with a logP of 4.6.

Regarding `CCc1nc2ccc(N(Cc3ccccc3)C(=O)c3cccs3)cc2c(=O)n1Cc1ccc(-c2ccccc2-c2nn[nH]n2)cc1` [Example 118], the “log P” value was 4.1.

`CCCc1nc2ccc(N(CCOC)C(=O)c3ccncc3)cc2c(=O)n1Cc1ccc(-c2ccccc2-c2nnn[nH]2)cc1` [Example 119] had a logP of 3. On the same count and under the same terms, then `CCCc1nc2ccc(N(CC(=O)O)C(=O)c3ccccc3)cc2c(=O)n1Cc1ccc(-c2ccccc2-c2nnn[nH]2)cc1` [Example 120], with 2.1. As to `CCCCCN(C(=O)c1ccc(Cl)cc1)c1ccc2nc(COC)n(Cc3ccc(-c4ccccc4-c4nnn[nH]4)cc3)c(=O)c2c1` [Example 121], the logP was 4.6. On the same count and under the same terms, the result for `CCc1nc2ccc(N(Cc3ccccc3)C(=O)c3ccco3)cc2c(=O)n1Cc1ccc(-c2ccccc2-c2nnn[nH]2)cc1` [Example 122] reads 3.9; that for `CCCc1nc2ccc(N(CC)C(=O)c3cccs3)cc2c(=O)n1Cc1ccc(-c2ccccc2-c2nnn[nH]2)cc1` [Example 124], 3.8; that for `CCCc1nc2ccc(N(CC)C(=O)c3ccco3)cc2c(=O)n1Cc1ccc(-c2ccccc2-c2nnn[nH]2)cc1` [Example 125], 3.5. The compound `CCCc1nc2ccc(N(Cc3ccccc3)C(=O)c3ccccc3OC)cc2c(=O)n1Cc1ccc(-c2ccccc2-c2nn[nH]n2)cc1` [Example 126] showed a logP of 5. In turn, `CCCc1nc2ccc(N(CCC)C(=O)c3ccccc3OC)cc2c(=O)n1Cc1ccc(-c2ccccc2-c2nnn[nH]2)cc1` [Example 127] gave a logP of 4.1. The compound `CCCCCN(C(=O)c1ccc(OCc2ccccc2)cc1)c1ccc2nc(CCC)n(Cc3ccc(-c4ccccc4-c4nnn[nH]4)cc3)c(=O)c2c1` [Example 128] came in with a logP of more than 5.7.

Regarding `CCCc1nc2ccc(N(CCC)C(=O)c3ccc(OCc4ccccc4)cc3)cc2c(=O)n1Cc1ccc(-c2ccccc2-c2nnn[nH]2)cc1` [Example 129], the logP is 5.5. Same read-out and setting: then `CCCCCN(C(=O)c1ccc(O)cc1)c1ccc2nc(CCC)n(Cc3ccc(-c4ccccc4-c4nnn[nH]4)cc3)c(=O)c2c1` [Example 130], with 4.7; and `CCCc1nc2ccc(N(CCC)C(=O)c3ccc(O)cc3)cc2c(=O)n1Cc1ccc(-c2ccccc2-c2nnn[nH]2)cc1` [Example 131], with 3.8. Same read-out and setting: the result for `CCCc1nc2ccc(N(Cc3ccccc3)C(=O)Cn3ccnc3)cc2c(=O)n1Cc1ccc(-c2ccccc2-c2nn[nH]n2)cc1` [Example 132] reads 3.6; that for `CCCc1nc2ccc(N(Cc3ccccc3)C(=O)CN3CCN(C(=O)OC(C)(C)C)CC3)cc2c(=O)n1Cc1ccc(-c2ccccc2-c2nnn[nH]2)cc1` [Example 133], 5.3. `CCCc1nc2ccc(N(Cc3ccccc3)C(=O)c3cccnc3)cc2c(=O)n1Cc1ccc(-c2ccccc2-c2nnn[nH]2)cc1` [Example 134] came in with a logP of 3.7. Still for that read-out and setting: then `CCCc1nc2ccc(N(Cc3ccccn3)C(=O)Oc3ccccc3)cc2c(=O)n1Cc1ccc(-c2ccccc2-c2nn[nH]n2)cc1` [Example 135], with 3.6.
